Test results published in patent US20070269832A1, “Novel affinity labels” (priority 2001, published 2007).
Peptide text beside a SMILES is read from it. * marks the point of attachment. Cbz = O=C(OCc1ccccc1)*; CH2F = FC*

Assays:
Type in all cases: cell-based, Human
HL-60 cells [1] = experiment: Dual labeling of CPT-treated HL-60 cells with SR-VAD-FMK and FFCK or FLCK (fluorescence microscopy / LSC); conditions: CPT-treated HL-60, dual labeling
Experimental: Cell staining and fluorescence measurement by LSC: The HL-60 cells from the untreated or CPT treated cultures were centrifuged (200 g, 5 min) and resuspended in PBS at approximately 10^4 cells per 5 ml volume. Cells were then attached electrostatically to microscope slides as described before (Bedner et al., Exp Cell Res., 2000, 259:308-313; Smolewski et al., Cytometry, 2001, 44:73-82). Briefly, the attachment was achieved by the incubation (15 min) of cells suspended in serum-free PBS in shallow (<1 mm depth; 1.5×1.5 cm) wells on horizontally placed microscope slides that were rinsed in 100% ethanol and air dried prior to use, at 100% humidity. The electrostatically attached cells remain viable, exclude such dyes as trypan blue and propidium iodide (PI), and have unchanged morphology for several hours (Bedner et al., Exp Cell Res., 2000, 259:308-313). After the cells became attached, PBS was removed from the wells and was replaced by 150 μL of the culture medium containing 10% FCS. FLISP staining solutions were prepared by diluting 5 μL of the 10 mM FFCK or FLCK stock solution into 5 mL of culture medium yielding a final FLISP concentration 10 μM. The medium from above the cells on the slide was then replaced with 150 μL of this staining solution. A polyethylene foil (2.5×2.5 cm) was positioned over the staining solution to prevent drying. The slides were subsequently incubated for 1 h at 37° C. in a closed box with wet tissue to additionally prevent drying. […] The slides were placed on the motorized stage of a laser scanning microscope (LSC; Kamentsky, L. A., Methods Cell Biol, 2001, 63:51-87; Darzynkiewicz et al., Exp Cell Res, 1999, 249:1-12) for fluorescence measurement. Cell fluorescence was then measured using a 488 nm excitation laser line and recording integral and maximal pixel intensities of green FFCK or FLCK. FLICA staining was measured under the same conditions as FLISP staining. Fluorescence can also be measured by flow cytometer and fluorescence microscopy. […]

HL-60 cells [2] = experiment: Pretreatment of HL-60 cells with unlabeled protease inhibitors during CPT induction of apoptosis, then binding of FAM-VAD-FMK, FFCK or FLCK measured by LSC; conditions: HL-60, CPT 3 h in presence of the unlabeled inhibitor; mean (SE) of three experiments
Experimental: Unlabeled (cold) N-tosyl-phenylalanylchloromethyl ketone (TPCK) and N-tosyl-lysylchloromethyl keytone (TLCK) were obtained from Sigma Chemical Co.; concentrated solutions at 10 mM were freshly prepared in DMSO. Further dilutions were made in tissue culture media.
The non-fluorescent poly-caspase inhibitor Z-VAD-FMK was obtained from Enzyme Systems Products. A 20 mM stock solution of Z-VAD-FMK was made in DMSO (Sigma) and the inhibitor was then diluted in culture media to obtain the final 50 μM concentration in the cultures.
(§1) Cells: Human promyelocytic leukemic HL-60 cells were obtained from American Type Culture Collection (ATCC; Rockville, Md.). […]
Cell staining and fluorescence measurement by LSC: The HL-60 cells from the untreated or CPT treated cultures were centrifuged (200 g, 5 min) and resuspended in PBS at approximately 10^4 cells per 5 ml volume. […] The slides were placed on the motorized stage of a laser scanning microscope (LSC; Kamentsky, L. A., Methods Cell Biol, 2001, 63:51-87; Darzynkiewicz et al., Exp Cell Res, 1999, 249:1-12) for fluorescence measurement. Cell fluorescence was then measured using a 488 nm excitation laser line and recording integral and maximal pixel intensities of green FFCK or FLCK. FLICA staining was measured under the same conditions as FLISP staining. Fluorescence can also be measured by flow cytometer and fluorescence microscopy. […]

HL-60 cells [3] = experiment: Labeling of untreated and CPT-treated HL-60 cells with FLISP (FFCK, FLCK) or FLICA reagents, fluorescence measured by LSC; conditions: for binding of the ligand by cells treated with CPT vs untreated cells (in words): HL-60, 3 h CPT, combined with PI
Experimental: Preparation of Reagents: Fluorescent Inhibitors of Serine Proteases (FLISP) reagents, 5(6)-Carboxyfluoresceinyl-L-phenylalanylchloromethyl ketone (FFCK) and 5(6)-carboxyfluoresceinyl-L-leucylchloromethyl ketone (FLCK) were dissolved initially in dimethyl sulfoxide (DMSO; Sigma) to yield a 10 mM concentration. Aliquots were made from this stock solution and stored frozen at −20° C. protected from light. This reagent stock was then diluted directly into the cell culture media to give a 1× working reagent concentration of 10 μM. Dilution of the reagent into aqueous (cell culture) media is done just prior to cell exposure to preserve the labile chloromethyl ketone reactivity of FLISP reagent.
Fluorescent inhibitors of caspases (FLICA) reagents, namely the fluorescein labeled VAD-FMK (FAM-VAD-FMK) and sulforhodamine labeled VAD-FMK (SR-VAD-FMK) (Immunochemistry Technologies; Bloomington, Minn.) were both designed to detect the presence of active caspases within apoptotic cells. These inhibitors were dissolved in DMSO to obtain a 150× concentrated stock solution. Aliquots of these solutions were stored at −20 °C in the dark. Prior to use, a 30× working solution of either FAM-VAD-FMK or SR-VAD-FMK was prepared by diluting the stock solution 1:5 in phosphate buffered saline (PBS) and mixing until the solution become clear. The 30× working solution was diluted 1:30 cell culture media to give a final 1× working reagent concentration of 10 μM.
as §1
Cell staining and fluorescence measurement by LSC: The HL-60 cells from the untreated or CPT treated cultures were centrifuged (200 g, 5 min) and resuspended in PBS at approximately 10^4 cells per 5 ml volume. […]

| Compound | fluorescence of labeled cells (intensity and distribution, in words) (HL-60 cells [1]) | percent decrease in frequency of FAM-VAD-FMK labeled cells (caspase activation) vs CPT without unlabeled inhibitor (HL-60 cells [2]) | binding of the ligand by cells treated with CPT vs untreated cells (in words) (HL-60 cells [3]) | fluorescence intensity of FLCK labeled cells, greater compared to FFCK labeled cells (HL-60 cells [3]; identical settings of the photomultiplier sensitivity) |
| --- | --- | --- | --- | --- |
| Sulforhodaminyl-L-valylalanylaspartylflyoromethyl ketone [SR-VAD-FMK, reference compound] | uniformly dispersed | – | – | – |
| COC(=O)C[C@H](NC(=O)[C@H](C)NC(=O)[C@@H](NC(=O)OCc1ccccc1)C(C)C)C(=O)CF [Z-VAD-FMK] (Cbz-Val-Ala-Asp(OMe)-CH2F) | – | 95.0% | – | – |
| 5(6)-Carboxyfluoresceinyl-L-phenylalanylchloromethyl ketone [FFCK] | strong | – | induced binding | – |
| 5(6)-carboxyfluoresceinyl-L-leucylchloromethyl ketone [FLCK] | faint and more uniformly distributed | – | induced binding | approximately 60% |
